From US4645769A, “1-oxa-1-dethia-cephalosporin compounds and antibacterial agent comprising the same” (Merck & Co., Inc., priority 1985, dated 1987)
≈ marks a conversion by molar mass, not a printed value. Counter-ions that a name gives are not always drawn. Like-named read-outs stand apart in the source and are kept apart here.

What was measured:
[1] = tested on: Streptococcus faecalis ATCC 8043; test: Minimum Inhibitory Concentration (MIC), antibacterial spectrum in vitro; assay type: cell-based; conditions: Enterococcus faecalis
[2] = tested on: Staphylococcus aureus 209 P JC-1; test: as above; assay type: cell-based
[3] = tested on: Pseudomonas aeruginosa E-2; test: as above; assay type: cell-based
[4] = tested on: Esherichia coli TEM DC-2; test: as above; assay type: cell-based; conditions: read-out: Minimum Inhibitory Concentration (MIC)
[5] = tested on: Proteus morganii 1510; test: as above; assay type: cell-based
[6] = tested on: Esherichia coli NIHJ JC-2; test: as above; assay type: cell-based
[7] = tested on: Citrobacter freundii GN-346; test: as above; assay type: cell-based
[8] = tested on: Klebsiella pneumoniae PCI 602; test: as above; assay type: cell-based
[9] = tested on: Enterobacter cloacae P99; test: as above; assay type: cell-based; conditions: P99, read-out: Minimum Inhibitory Concentration (MIC)
[10] = Concentration in Blood Serum after subcutaneous dosing (bioassay using Escherichia coli); assay type: in vivo; conditions: mouse, sc, 25 mg/Kg subcutaneously, mice; for concentration at 0.5 h: 1/2 hour; for concentration at 0.25 h: 1/4 hour; for concentration at 5 min: 1/12 hour
Method: The concentration of the compound in the serum was determined by bioassay using Escherichia coli as assay microorganism.

[11] = tested on: Salmonella typhimurium LT-2; test: Minimum Inhibitory Concentration (MIC), antibacterial spectrum in vitro; assay type: cell-based; conditions: Salmonella enterica, read-out: Minimum Inhibitory Concentration (MIC)
[12] = tested on: Pseudomonas aeruginosa (GN 10362); test: Efficacy in Mice Infected with Pseudomonas aeruginosa (GN 10362); assay type: in vivo; conditions: GN10362, sc, 168 h
Source text: (§1) A systemic infection was produced by intraperitoneal injection of the appropriate pathogen to mice (five male mice in each group, average body weight 20 g), and the mice were received single subcutaneous dose of the compound one hour after the infection.

[13] = tested on: Pseudomonas aeruginosa MB-3833; test: Minimum Inhibitory Concentration (MIC), antibacterial spectrum in vitro; assay type: cell-based
[14] = tested on: Pseudomonas aeruginosa RPL-11; test: as above; assay type: cell-based
[15] = tested on: Staphylococus aureus (Smith I); test: Efficacy in Mice Infected with Staphylococus aureus (Smith I); assay type: in vivo; conditions: Staphylococcus aureus, sc, 168 h, St. aureus (Smith I) intraperitoneal infection, single subcutaneous dose one hour after infection, 7 days
Source text: as §1

[16] = tested on: Pseudomonas aeruginosa; test: Antibacterial activity against Pseudomonas aeruginosa (from Table 1); assay type: cell-based; conditions: in words
[17] = tested on: Streptococcus faecalis; test: Antibacterial activity against Streptococcus faecalis (statement in words); assay type: cell-based
[18] = ATCC8043, Streptococcus faecalis ATCC 8043, read-out: Minimum Inhibitory Concentration (MIC)
[19] = 209PJC1, Staphylococcus aureus 209 P JC-1, read-out: Minimum Inhibitory Concentration (MIC)
[20] = E2, Pseudomonas aeruginosa E-2, read-out: Minimum Inhibitory Concentration (MIC)
[21] = Morganella morganii, Proteus morganii 1510, read-out: Minimum Inhibitory Concentration (MIC)
[22] = GN346, Citrobacter freundii GN-346, read-out: Minimum Inhibitory Concentration (MIC)
[23] = PCI602, Klebsiella pneumoniae PCI 602, read-out: Minimum Inhibitory Concentration (MIC)
[24] = Ps. aeruginosa (GN 10362) intraperitoneal infection, mice, single subcutaneous dose one hour after infection, 7 days, read-out: ED 50
[25] = MB3833, Pseudomonas aeruginosa MB-3833, read-out: Minimum Inhibitory Concentration (MIC)
[26] = RPL11, Pseudomonas aeruginosa RPL-11, read-out: Minimum Inhibitory Concentration (MIC)

Row | MIC [6] [µg/mL] | MIC [1, 18] [µg/mL] | MIC [2, 19] [µg/mL] | MIC [3, 20] [µg/mL] | MIC [5, 21] [µg/mL] | MIC [7, 22] [µg/mL] | MIC [8, 23] [µg/mL] | MIC ([11]; Salmonella typhimurium LT-2) [µg/mL] | MIC [13, 25] [µg/mL] | Structure (SMILES) | MIC [4] [µg/mL] | MIC [9] [µg/mL] | concentration at 0.5 h [10] [ng/mL] | concentration at 0.25 h [10] [ng/mL] | concentration at 5 min [10] [ng/mL] | concentration at 1 h [10] [ng/mL] | effectiveness against Pseudomonas aeruginosa [16] | MIC [14, 26] [µg/mL] | effectiveness against Streptococcus faecalis [17] | also measured
1 | 0.05 (≈ 0.0852 µM) | 12.5 (≈ 21.3 µM) | 0.2 (≈ 0.341 µM) | 3.13 (≈ 5.34 µM) | 6.25 (≈ 10.7 µM) | 50 (≈ 85.2 µM) | 0.1 (≈ 0.17 µM) | < 0.025 | 3.13 (≈ 5.34 µM) | CON=C(C(=O)NC1C(=O)N2C(C(=O)[O-])=C(CSc3cc[n+](CC(F)(F)F)cc3)C(C)OC12)c1csc(N)n1 [Compound 6, (6R,7R)-7-((Z)-2-(2-Aminothiazole-4-yl)-2-methoxyiminoacetamide)-(2S)-2-methyl-3-(1-(2,2,2-trifluoroethyl)pyridinium-4-ylthiomethyl)-1-oxa-1-dethiaceph-3-em-4-carboxylate] | – | – | – | – | – | – | effective against Pseudomonas aeruginosa | – | effective against Streptococcus faecalis | –
2 | 0.1 | 6.25 | 0.39 | 12.5 | 0.78 | 6.25 | 0.05 | 0.05 | 12.5 | CCON=C(C(=O)NC1C(=O)N2C(C(=O)[O-])=C(CSc3cc[n+](CC(=O)O)cc3)C(C)OC12)c1csc(N)n1 [Compound 8, (6R,7R)-7(Z)-2-(2-Aminothiazole-4-yl)-2-ethoxyiminoacetamide)-(2S)-2-methyl-3-(1-carboxymethylpyridinium-4-ylthiomethyl)-1-oxa-1-dethiaceph-3-em-4-carboxylate (Sodium Salt)] | – | – | – | – | – | – | – | – | effective against Streptococcus faecalis | –
3 | < 0.025 | 1.56 (≈ 3.09 µM) | 0.1 (≈ 0.198 µM) | 25 (≈ 49.5 µM) | 1.56 (≈ 3.09 µM) | 1.56 (≈ 3.09 µM) | 0.025 (≈ 0.0495 µM) | < 0.025 | 6.25 (≈ 12.4 µM) | CON=C(C(=O)NC1C(=O)N2C(C(=O)[O-])=C(CSc3cc[n+](C)cc3)COC12)c1csc(N)n1 [Compound 10, (6R,7R)-7-((Z)-2-(2-Aminothiazole-4-yl)-2-methoxyiminoacetamide)-3-(1-methylpyridinium-4-yl-thiomethyl)-1-oxa-1-dethiaceph-3-em-4-carboxylate] | – | – | – | – | – | – | – | – | effective against Streptococcus faecalis | –
4 | < 0.025 | 0.78 | 0.39 | 50 | 6.2 | 12.5 | 0.025 | < 0.025 | 25 | CON=C(C(=O)NC1C(=O)N2C(C(=O)[O-])=C(CSc3cc[n+](CC(=O)O)cc3)COC12)c1csc(N)n1 [Compound 11, (6R,7R)-7-((Z)-2-(2-Aminothiazole-4-yl)-2-methoxyiminoacetamide)-3-(1-carboxymethylpyridinium-4-yl-thiomethyl)-1-oxa-1-dethiaceph-3-em-4-carboxylate (Sodium Salt)] | – | – | – | – | – | – | – | – | effective against Streptococcus faecalis | –
5 | < 0.025 | 6.25 | 0.39 | 25 | 12.5 | 12.5 | 0.025 | < 0.025 | 12.5 | CCON=C(C(=O)NC1C(=O)N2C(C(=O)[O-])=C(CSc3cc[n+](CC(=O)O)cc3)COC12)c1csc(N)n1 [Compound 12, (6R,7R)-7-((Z)-2-(2-Aminothiazole-4-yl)-2-ethoxyiminoacetamido)-3-(1-carboxymethylpyridinium-4-ylthiomethyl)-1-oxa-1-dethiaceph-3-em-4-carboxylate (Sodium Salt)] | – | – | – | – | – | – | – | – | effective against Streptococcus faecalis | –

The next lines start with the molecule.

Row | Structure (SMILES) | MIC [6] [µg/mL] | MIC [1, 18] [µg/mL] | MIC [2, 19] [µg/mL] | MIC [3, 20] [µg/mL] | MIC [5, 21] [µg/mL] | MIC [7, 22] [µg/mL] | MIC [8, 23] [µg/mL] | MIC ([11]; Salmonella typhimurium LT-2) [µg/mL] | MIC [13, 25] [µg/mL] | MIC [4] [µg/mL] | MIC [9] [µg/mL] | concentration at 0.5 h [10] [ng/mL] | concentration at 0.25 h [10] [ng/mL] | concentration at 5 min [10] [ng/mL] | concentration at 1 h [10] [ng/mL] | effectiveness against Pseudomonas aeruginosa [16] | MIC [14, 26] [µg/mL] | effectiveness against Streptococcus faecalis [17] | also measured
6 | CC(C)(O/N=C(\C(=O)N[C@@H]1C(=O)N2C(C(=O)[O-])=C(C[n+]3ccccc3)CS[C@H]12)c1csc(N)n1)C(=O)O [Ceftazidime, reference compound] | 0.1 (≈ 0.183 µM) | – | – | – | – | – | – | – | – | 0.5 (≈ 0.915 µM) | 64 (≈ 117 µM) | 11500 | 20000 | 13000 | 6300 | – | – | – | MIC ([1]; ATCC8043, read-out: Minimum Inhibitory Concentration (MIC)): 50 µg/mL (≈ 91.5 µM); MIC ([2]; Staphylococcus aureus, 209PJC1, read-out: Minimum Inhibitory Concentration (MIC)): 1.56 µg/mL (≈ 2.85 µM); MIC ([3]; Pseudomonas aeruginosa, E2, read-out: Minimum Inhibitory Concentration (MIC)): 0.78 µg/mL (≈ 1.43 µM); MIC ([5]; Morganella morganii, 1510, read-out: Minimum Inhibitory Concentration (MIC)): 12.5 µg/mL (≈ 22.9 µM); MIC ([7]; Citrobacter freundii, GN346, read-out: Minimum Inhibitory Concentration (MIC)): 25 µg/mL (≈ 45.7 µM); MIC ([8]; Klebsiella pneumoniae, PCI602, read-out: Minimum Inhibitory Concentration (MIC)): 0.1 µg/mL (≈ 0.183 µM); MIC ([11]; TYPHIMURIUM): 0.05 µg/mL (≈ 0.0915 µM); ED50 [12]: 0.22 mg/kg; MIC ([13]; Pseudomonas aeruginosa, MB3833, read-out: Minimum Inhibitory Concentration (MIC)): 0.78 µg/mL (≈ 1.43 µM); MIC ([14]; Pseudomonas aeruginosa, RPL11, read-out: Minimum Inhibitory Concentration (MIC)): 3 µg/mL (≈ 5.49 µM)
7 | CC1OC2C(NC(=O)C(=NOC(C)(C)C(=O)O)c3csc(N)n3)C(=O)N2C(C(=O)[O-])=C1CSc1cc[n+](C)cc1 [Compound 1, (6R,7R)-7-((Z)-2-(2-Aminothiazole-4-yl)-2-(2-carboxyprop-2-oxyimino)acetamide)-(2S)-2-methyl-3-(1-methyl-pyridinium-4-ylthiomethyl)-1-oxa-1-oxa-1-dethiaceph-3-em-4-carboxylate (Sodium Salt)] | 0.2 | 50 | 1.56 | 3.13 | 0.39 | 0.78 | 0.2 | 0.05 | 3.13 | 0.5 | 1 | 10600 | 18500 | 14500 | 2200 | effective against Pseudomonas aeruginosa | 4 | – | ED50 [15]: 0.028 mg/kg; ED50 [12, 24]: 0.16 mg/kg
8 | C[n+]1ccc(SCC2=C(C(=O)[O-])N3C(=O)C(NC(=O)C(=NOCC(=O)O)c4csc(N)n4)C3OC2)cc1 [Compound 13, (6R,7R)-7-((Z)-2-(2-Aminothiazole-4-yl)-2-carboxymethoxyiminoacetamide)-3-(1-methylpyridinium-4-ylthiomethyl)-1-oxa-1-dethiaceph-3-em-4-carboxylate (Sodium Salt)] | < 0.025 | 50 | 1.56 | 6.25 | 1.56 | 6.25 | 25 | < 0.025 | 6.25 | 1 | 64 | – | – | – | – | – | 128 | – | –
9 | CC(C)(ON=C(C(=O)NC1C(=O)N2C(C(=O)[O-])=C(CSc3cc[n+](CC(F)(F)F)cc3)COC12)c1csc(N)n1)C(=O)O [Compound 16, (6R,7R)-7-((Z)-2-(2-Aminothiazole-4-yl)-2-(2-carboxyprop-2-oxyimino)acetamide)-3-(1-(2,2,2-trifluoroethyl)-pyridinium-4-ylthiomethyl)-1-oxa-1-dethiaceph-3-em-4-carboxylate (Sodium Salt)] | 0.1 | > 100 | 3.13 | 1.56 | 6.25 | 25 | 0.1 | < 0.025 | 1.56 | 0.03 | 128 | 11000 | 20000 | 16000 | 2400 | effective against Pseudomonas aeruginosa | 32 | – | –
10 | CO[C@@]1(NC(=O)C(C(=O)O)c2ccc(O)cc2)C(=O)N2C(C(=O)O)=C(CSc3nnnn3C)CO[C@@H]21 (stereo partly shown) [Latamoxef, reference compound] | 0.1 (≈ 0.192 µM) | 25 (≈ 48 µM) | 3.13 (≈ 6.01 µM) | 6.25 (≈ 12 µM) | 0.2 (≈ 0.384 µM) | 1.56 (≈ 3 µM) | 0.2 (≈ 0.384 µM) | 0.05 (≈ 0.0961 µM) | 6.25 (≈ 12 µM) | – | – | – | – | – | – | – | – | – | ED50 [15]: 0.67 mg/kg; ED50 [12, 24]: 2.9 mg/kg
